Laboratory results as given in patent publication US5602101A, “Antithrombotic agents” (priority 1994, dated 1997).

How the values were obtained:
human thrombin = target: T1, human thrombin (Homo sapiens, UniProt P00734); test: Inhibition of amidase activity of thrombin (chromogenic substrate), Kass; format: biochemical; details: substrate N-benzoyl-Phe-Val-Arg-p-nitroanilide, pH 7.4
T1 construct: purified human thrombin Enzyme Research Laboratories, South Bend, Ind; purchased Enzyme Research Laboratories, South Bend, Ind
Description: (§1) The assay is carried out by mixing 50 μl buffer (0.03M Tris, 0.15M NaCl, pH 7.4), 25 μl of human thrombin solution (purified human thrombin Enzyme Research Laboratories, South Bend, Ind.) at 8 NIH units/ml and 25 μl of test compound in a solvent (50% aqueous methanol (v:v)). Then 150 μl of an aqueous solution of the chromogenic substrate (at 0.25 mg/ml) are added and the rates of hydrolysis of the substrate are measured by monitoring the reactions at 405 nm for the release of p-nitroaniline. Standard curves are constructed by plotting free thrombin concentration against hydrolysis rate. The hydrolysis rates observed with test compounds are then converted to "free thrombin" values in the respective assays by use of the standard curves. The bound thrombin (bound to test compound) is calculated by subtracting the amount of free thrombin observed in each assay from the known initial amount of thrombin used in the assay. The amount of free inhibitor in each assay is calculated by subtracting the number of moles of bound thrombin from the number of moles of added inhibitor (test compound).
The Kass value is the hypothetical equilibrium constant for the reaction between thrombin and the test compound (I). [drawing 53]
(§2) Kass is calculated for a range of concentrations of test compounds and the mean value is reported in units of liter per mole.

factor Xa = target: T2, factor Xa (Homo sapiens, UniProt P00742); test: Serine protease inhibition, factor Xa (chromogenic substrate), Kass; format: biochemical; details: substrate N-Benzoyl-Ile-Glu-Gly-Arg-p-nitroanilide
T2 construct: Human factors X, Xa, IXa, XIa, and xIIa are purchased from Enzyme Research Laboratories; purchased Enzyme Research Laboratories, South Bend, Ind
Description: as §1, §2
(§3) By substantially following the procedures described above for human thrombin, and using other human blood coagulation system serine proteases, and using fibrinolytic system serine proteases, with the appropriate chromogenic substrate, identified below, selectivity of the compounds of the present invention with respect to the coagulation factor serine proteases and to the fibrinolytic serine proteases are evaluated as well as their substantial lack of interference with human plasma clot fibrinolysis.
(§4) Human factors X, Xa, IXa, XIa, and xIIa are purchased from Enzyme Research Laboratories, South Bend, Ind.; human urokinase from Leo Pharmaceuticals, Denmark; and recombinant activated Protein C (aPC) is prepared at Eli Lilly and Co. substantially according to U.S. Pat. No. 4,981,952 incorporated by reference herein in its entirety. Chromogenic substrates: N-Benzoyl-Ile-Glu-Gly-Arg-p-nitroanilide (for factor Xa); N-Cbz-D-Arg-Gly-Arg-p-nitroanilide (for factor IXa assay as the factor Xa substrate) pyroglutamyl-Pro-Arg-p-nitroanilide (for factor XIa and for aPC); H-D-Pro-Phe-Arg-p-nitroanilide (for factor XIIa); and pyroglutamyl-Gly-Arg-p-nitroanilide (for urokinase); are purchased from KabiVitrum, Stockholm, Sweden, or from Midwest Biotech, Fishers, Indiana. Bovine trypsin is purchased from Worthington Biochemicals, Freehold, N.J., and human plasma kallikrein from Kabi Vitrum, Stockholm, Sweden. N-Benzoyl-Phe-Val-Arg-p-nitroanilide, the substrate for human thrombin and for trypsin, is synthesized according to procedures described above for the compounds of the present invention, known methods of peptide coupling from commercially available reactants, or was purchased from Midwest Biotech, Fishers, Ind. Human plasmin is purchased from Boehringer Mannheim, Indianapolis, Ind.; nt-PA is purchased as single chain activity reference from American Diagnostics, Greenwich, Conn.; modified-t-PA6 (mt-PA6) is prepared at Eli Lilly and Company by procedure known in the art (See, Burck, et al., J. Biol. Chem., 265, […] (1990). Plasmin chromogenic substrate H-D-Val-Leu-Lys-p-nitroanilide and tissue plasminegen activator (t-PA) substrate H-D-Ile-Pro-Arg-p-nitroanilide are purchased from Kabi Vitrum, Stockholm, Sweden.

Bovine trypsin = target: T3, Bovine trypsin (Bos taurus, UniProt P00760); test: Serine protease inhibition, trypsin (chromogenic substrate), Kass; format: biochemical; details: substrate N-Benzoyl-Phe-Val-Arg-p-nitroanilide
T3 construct: Bovine trypsin is purchased from Worthington Biochemicals, Freehold, N.J; purchased Worthington Biochemicals, Freehold, N.J
T3 sequence (P00760 24-246): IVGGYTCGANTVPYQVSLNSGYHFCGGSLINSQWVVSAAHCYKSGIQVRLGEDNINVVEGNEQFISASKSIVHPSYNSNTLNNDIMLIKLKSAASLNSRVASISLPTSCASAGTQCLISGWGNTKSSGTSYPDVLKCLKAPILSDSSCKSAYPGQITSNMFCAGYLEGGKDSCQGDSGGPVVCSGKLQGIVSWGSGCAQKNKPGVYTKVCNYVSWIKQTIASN
Description: as §1, §2, §3, §4

Human plasmin = target: T4, Human plasmin (Homo sapiens, UniProt P00747); test: Serine protease inhibition, plasmin (chromogenic substrate), Kass; format: biochemical; details: substrate H-D-Val-Leu-Lys-p-nitroanilide
T4 construct: Human plasmin is purchased from Boehringer Mannheim, Indianapolis, Ind; purchased Boehringer Mannheim, Indianapolis, Ind
Description: as §1, §2, §3, §4

[1] = target: T5, tissue plasminogen activator (t-PA) (Homo sapiens, UniProt P00750); test: Serine protease inhibition, t-PA (chromogenic substrate), Kass; format: biochemical; details: substrate H-D-Ile-Pro-Arg-p-nitroanilide
T5 construct: purchased American Diagnostics, Greenwich, Conn
Description: as §1, §2, §3, §4

Human Plasma [2] = test: Anticoagulation in human plasma, thrombin time (TT); format: biochemical; details: concentration required to double the thrombin time
Description: (§5) Dog plasma and rat plasma are obtained from conscious mixed-breed hounds (either sex, Hazelton-LRE, Kalamazoo, Mich., U.S.A.) or from anesthetized male Sprague-Dawley rats (Harlan Sprague-Dawley, Inc., Indianapolis, Ind., U.S.A.) by venipuncture into 3.8 percent citrate. Fibrinogen is prepared from in-date ACD human blood as the fraction I-2 according to previous procedures and specifications. Smith, Biochem. Chem. […] Human fibrinogen is also purchased as 98 percent pure/plasmin free from American Diagnostics, Greenwich, Conn. Coagulation reagents ACTIN, Thromboplastin, and Human plasma are from Baxter Healthcare Corp., Dade Division, Miami, Fla. Bovine thrombin from Parke-Davis (Ann Arbor, Mich.) is used for coagulation assays in plasma. Coagulation assay procedures are as previously described. Smith, et al., Thrombosis Research, 5, 163-174 (1988). A CoAScreener coagulation instrument (American LABor, Inc.) is used for all coagulation assay measurements. The prothrombin time (PT) is measured by adding 0.05 ml saline and 0.05 ml Thromboplastin-C reagent to 0.05 ml test plasma. The activated partial thromboplastin time (APTT) is measured by incubation of 0.05 ml test plasma with 0.05 ml Actin reagent for 120 seconds followed by 0.05 ml CaCl2 (0.02M). […] The compounds of formula I are added to human or animal plasma over a wide range of concentrations to determine prolongation effects on the APTT, PT, and TT assays. Linear extrapolations are performed to estimate the concentrations required to double the clotting time for each assay.

Human Plasma [3] = test: Anticoagulation in human plasma, activated partial thromboplastin time (APTT); format: biochemical; details: concentration required to double the APTT
Description: as §5

Human Plasma [4] = test: Anticoagulation in human plasma, prothrombin time (PT); format: biochemical; details: concentration required to double the PT
Description: as §5

[5] = Index of bioavailability (plasma TT AUC, p.o. vs i.v.); details: rats, adjusted for dose
Description: Male Sprague Dawley rats (350-425 gm, Harlan Sprague Dawley Inc., Indianapolis, Ind.) are anesthetized with xylazine (20 mg/kg, s.c.) and ketamine (120 mg/kg, s.c.) and maintained on a heated water blanket (37° C.). The jugular vein(s) is cannulated to allow for infusions.
Plasma thrombin time (TT) and activated partial thromboplastin time (APTT) are measured with a fibrometer. Blood is sampled from a jugular catheter and collected in syringe containing sodium citrate (3.8%, 1 part to 9 parts blood). To measure TT, rat plasma (0.1 ml) is mixed with saline (0.1 ml) and bovine thrombin (0.1 ml, 30 U/ml in TRIS buffer; Parke Davis) at 37° C. For APTT, plasma (0.1 ml) and APTT solution (0.1 ml, Organon Teknika are incubated for 5 minutes (37° C.) and CaCl2 (0.01 ml, 0,025M) is added to start coagulation. Assays are done in duplicate and averaged.
The time course of the effect of the thrombin inhibitor upon TT is determined after i.v bolus administration to anesthetized rats and after oral treatment of fasted conscious rats. Due to limitations of blood volume and the number of points required to determine the time course from time of treatment to the time when the response returns to pretreatment values, two populations of rats are used. Each sample population represents alternating sequential time points. The average TT over the time course is used to calculate area under the curve (AUC). The index of bioavailability is calculated by the formula shown below and is expressed as percent relative activity.
The area under the curve (AUC) of the plasma TT time course is determined and adjusted for the dose. This index of bioavailability is termed "% Relative Activity" and is calculated as [formula]
Compound solutions are prepared fresh daily in normal saline and are injected as a bolus or are infused starting 15 min before and continuing throughout the experimental perturbation which is 15 minutes in the arteriovenous shunt model and 60 minutes in the FeCl3 model of arterial injury and in the spontaneous thrombolysis model. Bolus injection volume is 1 ml/kg for i.v., and 5 ml/kg for p.o. and infusion volume is 3 ml/hr.

T2 sequence (P00742 235-488 limits assumed): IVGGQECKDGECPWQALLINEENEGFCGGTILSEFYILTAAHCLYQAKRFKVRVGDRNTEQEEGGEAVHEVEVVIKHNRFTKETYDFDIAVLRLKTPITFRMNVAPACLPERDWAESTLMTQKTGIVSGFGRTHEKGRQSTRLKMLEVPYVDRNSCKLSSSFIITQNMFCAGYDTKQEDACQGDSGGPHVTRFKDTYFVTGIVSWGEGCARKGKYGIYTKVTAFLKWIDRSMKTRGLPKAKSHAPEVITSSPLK
T2 sequence (P00742 41-179 partner limits assumed): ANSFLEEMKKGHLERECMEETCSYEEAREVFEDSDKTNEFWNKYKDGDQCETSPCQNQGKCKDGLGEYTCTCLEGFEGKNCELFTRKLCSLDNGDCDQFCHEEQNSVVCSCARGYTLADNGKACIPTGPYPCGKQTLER
T5 sequence (P00750 36-562): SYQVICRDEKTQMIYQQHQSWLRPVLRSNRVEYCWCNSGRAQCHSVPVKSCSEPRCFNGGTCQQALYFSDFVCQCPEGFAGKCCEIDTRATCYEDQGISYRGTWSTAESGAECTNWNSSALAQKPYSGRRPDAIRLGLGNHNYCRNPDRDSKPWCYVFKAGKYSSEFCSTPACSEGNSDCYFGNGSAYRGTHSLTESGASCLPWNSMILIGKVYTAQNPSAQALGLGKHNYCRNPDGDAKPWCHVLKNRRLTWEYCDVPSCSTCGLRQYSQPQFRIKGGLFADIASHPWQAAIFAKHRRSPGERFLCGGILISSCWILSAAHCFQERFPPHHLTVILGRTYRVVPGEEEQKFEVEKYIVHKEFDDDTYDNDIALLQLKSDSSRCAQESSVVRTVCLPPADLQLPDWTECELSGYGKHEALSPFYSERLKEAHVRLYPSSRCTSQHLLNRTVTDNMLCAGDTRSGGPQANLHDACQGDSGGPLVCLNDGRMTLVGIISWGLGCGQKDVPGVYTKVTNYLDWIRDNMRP
T4 sequence (P00747 581-810 limits assumed): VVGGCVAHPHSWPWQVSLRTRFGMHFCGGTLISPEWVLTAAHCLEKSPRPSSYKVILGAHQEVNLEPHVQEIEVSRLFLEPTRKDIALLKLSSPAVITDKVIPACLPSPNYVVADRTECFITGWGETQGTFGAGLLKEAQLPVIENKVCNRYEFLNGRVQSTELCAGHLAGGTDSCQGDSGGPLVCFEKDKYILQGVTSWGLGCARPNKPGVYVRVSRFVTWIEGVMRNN
T4 sequence (P00747 97-580 partner limits assumed): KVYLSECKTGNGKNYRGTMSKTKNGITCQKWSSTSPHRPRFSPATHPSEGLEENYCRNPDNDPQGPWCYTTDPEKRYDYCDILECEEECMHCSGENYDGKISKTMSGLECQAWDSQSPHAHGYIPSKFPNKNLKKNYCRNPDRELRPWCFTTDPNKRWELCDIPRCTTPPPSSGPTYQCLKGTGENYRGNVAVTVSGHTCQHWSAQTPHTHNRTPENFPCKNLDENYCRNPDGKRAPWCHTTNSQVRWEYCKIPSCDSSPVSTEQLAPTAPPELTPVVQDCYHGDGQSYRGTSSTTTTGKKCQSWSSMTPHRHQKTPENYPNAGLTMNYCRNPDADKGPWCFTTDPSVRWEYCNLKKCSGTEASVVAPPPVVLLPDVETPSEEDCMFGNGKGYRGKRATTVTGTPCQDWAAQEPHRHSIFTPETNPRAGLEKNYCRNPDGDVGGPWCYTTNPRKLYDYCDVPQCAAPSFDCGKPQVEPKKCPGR

SMILES	Enzyme Kass, Human Thrombin (human thrombin) [L/mol × 10^6]	Enzyme Kass, Xa (factor Xa) [L/mol × 10^6]	Enzyme Kass, Trypsin (Bovine trypsin) [L/mol × 10^6]	Enzyme Kass, Plasmin (Human plasmin) [L/mol × 10^6]	Enzyme Kass, t-Pa [1] [L/mol × 10^6]	2 × Clotting time, TT (Human Plasma [2]) [ng/mL]	2 × Clotting time, APTT (Human Plasma [3])	2 × Clotting time, PT (Human Plasma [4])	Index of Bioavailability, % Relative Activity [5] [%]
Cl.Cn1c(C(=O)NC(Cc2ccccc2)C(=O)N2CCCC2C(=O)NC(C=O)CCCN=C(N)N)cc2ccccc21 [Example 1, NMI-D-Phe-Pro-Arg-H.HCl]	850	0.51	120	7.9	31	43	440 ng/mL	870 ng/mL	2
Cl.NC(N)=NCCCC(C=O)NC(=O)C1CCCN1C(=O)C(Cc1ccccc1)NC(=O)c1ccc2ccccc2n1 (stereo not drawn) [Example 2]	110	0.16	22	0.55	0.32	35	1,100 ng/ML	1,400 ng/ML	1
Cl.N=C(N)NCCC[C@@H](C=O)NC(=O)[C@@H]1CCCN1C(=O)[C@@H](Cc1ccccc1)NC(=O)c1cccnc1 [Example 3, N-Nicotinoyl-D-Phe-Pro-Arg-H.HCl]	58	0.080	12	0.41	0.17	47	1,300 ng/ML	1,700 ng/ML	3
CS(=O)(=O)N[C@H](Cc1ccccc1)C(=O)N1CCC[C@H]1C(=O)N[C@H](C=O)CCCNC(=N)N.Cl [Example 7, MeSO2 -D-Phe-Pro-Arg-H.HCl]	690	2.4	220	17	13	21	330 ng/mL	530 ng/mL	27
CCS(=O)(=O)N[C@H](Cc1ccccc1)C(=O)N1CCC[C@H]1C(=O)N[C@H](C=O)CCCNC(=N)N.Cl [Example 8, EtSO2 -D-Phe-Pro-Arg-H-HCl]	450	2.6	260	31	2.9	9	260 ng/mL	660 ng/mL	31
CCCN(CCC)S(=O)(=O)c1ccc(C(=O)N[C@H](Cc2ccccc2)C(=O)N2CCC[C@H]2C(=O)N[C@H](C=O)CCCNC(=N)N)cc1.Cl [Example 29, 4-(n-Pr2 NSO2)-C6 H4 CO-D-Phe-Pro-Arg-H.HCl]	43	0.32	15	0.86	0.62	150	3,500 ng/ML	4,800 ng/ML	–
CCNC(=O)N[C@H](Cc1ccccc1)C(=O)N1CCC[C@H]1C(=O)N[C@H](C=O)CCCN=C(N)N.Cl [Example 32, EtNHCO-D-Phe-Pro-Arg-H.HCl]	25	0.21	60	2.0	0.54	63	1,100 ng/ML	1,700 ng/ML	–
CCOC(=O)N[C@H](CC1CCCCC1)C(=O)N1CCC[C@H]1C(=O)N[C@H](C=O)CCCN=C(N)N.Cl [Example 34, EtOCO-D-Cha-Pro-Arg-H.HCl]	360	8.1	140	26	0.75	48	410 ng/mL	890 ng/mL	–
